# Assay results published in patent US9439927B2, “Treatment of inflammatory bowel disease” (Glock Health GmbH, priority 2013, dated 2016).
# Legend:
# TNF-α = TNF-α mRNA by RT-PCR in intestinal tissue homogenates; type: in vivo, mice; settings: FIG. 10
# Experimental: (§1) For five groups of 12 mice each (only 3 mice in the control), the experimental routine procedure frequently used in connection with the treatment of IBD was carried out, in which IBD is induced by administration of dextran sulfate sodium (DSS). This involved administering DSS in drinking water for five days (but not in the control group), and after that the particular test substance was administered orally. On the tenth day, the mice were sacrificed using CO2 and the colon was removed for examination. The individual groups were as follows:
# To objectify and quantify the effects determined from the histological examinations, further analyses of biochemical inflammation markers (TNF-α/IL-6/IL-1β mRNA by means of RT-PCR, MPO activity) from tissue homogenates of the relevant intestinal segments were carried out.
# Two further proinflammatory cytokines were examined; the results are shown in FIG. 9 (IL-6) and 10 (TNF-α). Said figures show: • 2expΔΔct=the rise in expression for a particular gene (1=1×, 2=2×, etc.); • Control=control group; • DSS1.5=group 2; • DSS1.5+GHC1=group 3; • DSS1.5+GHC2=(inventive) group 4; • DSS1.5+5ASA=group 5; • **=a very significant difference in relation to the control group (control); • #=a significant difference in relation to the DDS1.5 group (group 2); • ##=a very significant difference in relation to the DDS1.5 group (group 2).
# intestinal epithelium = assay: Histological analysis (hematoxylin and eosin staining) and colon damage score; type: in vivo, mice
# Experimental: as §1, with “examination.” for “examination. The individual groups were as follows:”
# [1] = system: IBD induced by administration of dextran sulfate sodium (DSS); assay: Stool consistency (stool score), DSS-induced IBD in mice; type: in vivo; settings: tenth day, FIG. 2
# Experimental: as §1, with “examination.” for “examination. The individual groups were as follows:”
# [2] = system: IBD induced by administration of dextran sulfate sodium (DSS); assay: Blood in stool, DSS-induced IBD in mice; type: in vivo; parameters: key to Blood in stool: + Blood in stool; − No blood in stool; settings: for Blood in stool: DSS in drinking water for five days, test substance orally from the sixth day
# Experimental: as §1
# Group 2: received only DSS.
# Group 3: (GHC1) received DSS as described above and, from the sixth day, a clinoptilolite freed of heavy metals which was ground to a mean particle size of 3.5 μm and thus not in accordance with the invention.
# Group 4: (GHC2) received, from the sixth day, the substance according to the invention.
# Group 5: (5ASA) received, from the sixth day, sulfasalazine, a derivative of mesalazine, also termed 5-ASA.
smiles,measurement,setting,value
"O=C(O)c1cc(/N=N/c2ccc(S(=O)(=O)Nc3ccccn3)cc2)ccc1O [5ASA, sulfasalazine]",TNF-α expression (2expΔΔct),TNF-α,does not show a positive effect
same,Healing of the intestinal epithelium (histology),"intestinal epithelium; hematoxylin and eosin staining, day 10, FIG. 5",distinctly improved healing of the intestinal epithelium
same,Colon damage score,"intestinal epithelium; histo(patho)logical examinations, FIG. 6",good convergence
same,"Stool consistency, return to normal range",[1],completely within the normal range
same,Blood in stool,[2]; day 0,−
same,Blood in stool,[2]; day 2,−
same,Blood in stool,[2]; day 4,−
same,Blood in stool,[2]; day 6,+
same,Blood in stool,[2]; day 8,−
same,Blood in stool,[2]; day 10,−
same,Days on which blood in stool was exhibited,[2]; text summary of Table I,only on the sixth day
